The structures appear in SMILES notation.

One experiment deals with mouse bone marrow cells. In words: Metabolism promoting action on mouse bone marrow cells (mitochondrial metabolism activity, MTT reduction method). The class given is cell-based, BALB/c mouse. The following applies: Mus musculus, Bone marrow cell, 120 h, 5 days, magnitude of metabolism, no test compound = one. An excerpt: The presence of an immunoactivating action can be determined if the magnitude of metabolism exceeds one, where the cellular metabolism of cells not having test compounds added thereto is defined as one.

In the next experiment the test system is mouse spleen cells. In words: Action on the blastogenesis of mouse spleen cells (ConA-stimulated, MTT reduction method). The class given is cell-based, BALB/c mouse. The following applies: Mus musculus, 72 h, ConA 1 µg/ml, 3 days, rate against no test compound = one. The protocol: Serial two-fold dilutions (100 µl/well) with 10% FBS of test compounds which are dissolved in a dimethyl sulfoxide (DMSO) solution are obtained on a 96-well microplate, and used as test samples.
The spleen of a BALB/c mouse is aseptically isolated, and gently ground on a wire mesh with dropwise addition of sterilzed saline. The filtrate is passed through a nylon mesh (Becton Dickinson; pore size: 70 µm), thereby preparing a unicellular suspension.
After being washed twice with sterilized saline, the spleen cells are suspended in RPMI1460 containing 10% FCS and containing 1 µg/ml of concanavalin A (abbreviated as ConA: Sigma, U.S.) as well as an antibiotic (Sigma: Antibiotic Antimycotic), and dispensed into a 96-well microplate, in which 100 µl each of diluted test samples are previously dispensed, in amounts of 3 × 10^5 cells/100 µl/well.
Thereafter, culturing is carried out under 5% carbon dioxide gas at 37°C for 3 days, and then the blastogenesis of lymphocytes is measured by an MTT reduction method [Mosmann T, Journal of Immunological Method, vol. 65, p. 55, 1983]. The blastogenesis rate can be quantitated as a rate against the blastogenesis of those not having test compounds added thereto, which is defined as one. The presence of an immunoactivating action can be determined if the blastogenesis rate exceeds one.
Serial two-fold dilutions (100 µl/well) with RPMI1640 (Nikken Biomedical Laboratory) containing 10% FBS (bovine fetal serum: Dainippon Pharmaceutical Co., Ltd.) of test compounds which were dissoloved in a dimethylsulfoxide (DMSO) solution were obtained on a 96-well microplate, and used as test samples.
The spleen of a BALB/c mouse (a 6 week-old female) was aseptically isolated, and gently ground on a wire mesh with dropwise addition of sterilzed saline. The filtrate was passed through a nylon mesh (Becton Dickinson; pore size: 70 µm), thereby preparing a unicellular suspension.
After being washed twice with sterilized saline, the spleen cells were suspended in RPMI1460 containing 10% FCS and containing 1 µg/ml of concanavalin A (abbreviated as ConA: Sigma, U.S.) as well as an antibiotic (Sigma: Antibiotic Antimycotic), and dispensed into a 96-well microplate, in which 100 µl each of diluted test samples had previously been dispensed, in amounts of 3×10^5 cells/100 µl/well.
Thereafter, culturing was carried out under 5% carbon dioxide gas at 37°C for 3 days, and then the blastogenesis of lymphocytes was measured by an MTT reduction method [Mosmann T, Journal of Immunological Method, vol. 65, p. 55, 1983]. The results are shown in [Table 4].

For `COc1c(C2COc3cc(O)c(CC=C(C)C)c(OC)c3C2)ccc(O)c1CC=C(C)C` (stereo not shown) [A-8, 3-(4-hydroxy-2-methoxy-3-(3-methyl-2-butenyl)-phenyl)-3,4-dihydro-5-methoxy-7-hydroxy-6-(3-methyl-2-butenyl)-2H-1-benzopyran], the results for the activity at 0.39 µg/mL with mouse bone marrow cells (Test compound concentration 0.39 µg/ml) and with mouse spleen cells (concentration of additions in medium 0.39 μg/ml) were 113% and 112%, respectively. Also, the activity at 0.78 µg/mL with mouse bone marrow cells (Test compound concentration 0.78 µg/ml) was 127%; in the experiment on mouse spleen cells (concentration of additions in medium 0.78 μg/ml) it was 122%. For the same compound, the activity at 1.56 µg/mL in the experiment on mouse bone marrow cells (Test compound concentration 1.56 µg/ml) was 161%; with mouse spleen cells (concentration of additions in medium 1.56 μg/ml), 103%. Also, the activity at 3.13 µg/mL in the experiment on mouse bone marrow cells (Test compound concentration 3.13 µg/ml) was 156%; in the experiment with mouse spleen cells (concentration of additions in medium 3.13 μg/ml), 34%. In addition, the activity at 6.25 µg/mL in the experiment on mouse bone marrow cells (Test compound concentration 6.25 µg/ml) came out at 50%; with mouse spleen cells (concentration of additions in medium 6.25 μg/ml), 23%. The activity at 12.5 µg/mL with mouse bone marrow cells (Test compound concentration 12.5 µg/ml) worked out at 51%. The activity at 0.1 µg/mL in the experiment with mouse spleen cells (concentration of additions in medium 0.1 μg/ml) was determined as 111%. In the experiment on mouse spleen cells (concentration of additions in medium 0.2 μg/ml), the activity at 0.2 µg/mL was 99%.
